In series [1] the test system is BALB/c female mice. Description: Acute toxicity analysis of lipid molecules (cationic lipid LNP) in BALB/c female mice. The conditions noted are these: blood 24 h after injection, Ave(SD).
The nature of series [2]: In vivo expression distribution analysis of delivered luciferase mRNA (RT-PCR in tissues). Details: species or system C57BL/6J mice. The conditions noted are these: single intramuscular injection 50 μg; for Exposure in tissues and organs, from high to low: delivered luciferase mRNA, 2 h-336 h, RT-PCR. How it is done: In order to investigate the distribution features of lipid-delivering mRNA in vivo, we analyzed the distribution features of the reporter luciferase mRNA of the compounds of the present invention in C57BL/6J mice after administration by a single intramuscular injection. The experimental 10 C57BL/6J mice were enrolled, male and female, each administered 50 μg, with SM102 as the control.
Animals in the negative control group were collected at 2 h and 336 h after administration, and animals in the test group were collected at 2 h, 6 h, 24 h, 48 h, 72 h, 120 h, 168 h, and 336 h after administration whole blood, bone marrow, liver, spleen, heart, kidney, inguinal lymph nodes, mesenteric lymph nodes, spleen, brain, stomach, small intestine, non-injection site muscle, injection site muscle tissue, etc. The RNA content in the samples at each time point was detected by RT-PCR, and the lower limit of quantification of the method was […] to reflect the distribution features in C57BL/6J mice.

In series [3] the test system is luciferase mRNA. As to the kind of experiment: Detection of reporter gene (luciferase mRNA) expression in mice in vivo. Also noted: species or system BALB/c female mice. The conditions noted are these: LNP-delivered luciferase mRNA, quadriceps muscle injection, IVIS 24 h after injection; dose (5 or 14 μg mRNA) not given. The method, then:
The prepared LNP-encapsulated mRNA solution was diluted with PBS buffer to obtain the solution for injection. BALB/c female mice at about 20 g were injected with injection solution at the quadriceps muscle site of mice with an insulin syringe, and each mouse was injected with 50 μL. Two doses were designed: one dose of “5 μg mRNA per 50 μL of injection solution” and the other dose of “14 μg mRNA per 50 μL of injection solution”. BALB/c female mice at about 20 g are injected with PBS buffer at the quadriceps muscle site of mice with an insulin syringe, and each mouse was injected with 50 μL.
After the mice were injected for 24 h, in vivo expression of Luciferase was detected with Perkinelmer's IVIS. The substrate was D-luciferin Sodium salt (GOLDBIO, LUCNA-1G), which was formulated into a concentration of 15 mg/mL with normal saline, filtered and sterilized with a 0.22 μm filter membrane, and stored at −20° C. in aliquots protected from light. Before imaging, each mouse at about 20 g was intraperitoneally injected with 200 μL of substrate solution for 10-20 minutes, and then was anesthetized with isoflurane gas and placed prone on the imaging plate to detect the fluorescence of the animal in vivo, and the results are shown in Table 2.

Series [4] can be described thus: mRNA-LNP encapsulation: particle size, PDI and encapsulation rate of LNP. In kind it is physicochemical. How it is done: The mRNA stock solution was dispersed in 20 mM acetic acid solution (pH 5.0) to a final concentration of 200 μg/mL (aqueous phase). A fat mixture (oil phase) was obtained by mixing under a molar ratio of the exemplary compound:cholesterol:DSPC:DMG-PEG2000=50:38.5:10:1.5. The flow rate of the aqueous phase and the oil phase was controlled by T mixed flow, and the mRNA and lipid mixture were mixed under the volume ratio of 3:1 to obtain LNP-encapsulated mRNA. The encapsulated LNP was diluted 10-fold with buffer, then concentrated by ultrafiltration, and the dilute was displaced, and finally the LNP was concentrated to mRNA being 200 µg/mL, and the pH of the LNP was adjusted to about 7-8. Finally, the Ribogreen kit and 10% OTG were used as demulsifiers to detect the total content of mRNA and the content of […], and the encapsulation rate of LNP was calculated. The LNP final product was diluted 10-fold with diluent, added 1 mL into a particle size cell, and placed on the Malvern ZetaSizer instrument to detect the particle size and PDI of LNP.

The mark [5] stands for this setting: LNP of compound:cholesterol:DSPC:DMG-PEG2000=50:38.5:10:1.5 with mRNA, Malvern ZetaSizer.

Molecules are shown by their SMILES.

Results on 15 molecules are retold here after US12312292B2, “Long chain alkyl esteramine lipid compound, preparation method therefor and application thereof in nucleic acid delivery” (RinuaGene Biotechnology Co., Ltd., priority 2022, dated 2025).

With `CCCCCCCCCCCOC(=O)CCCCCN(CCCCCO)CCCCCCCC(=O)OC(CCCCCCCC)CCCCCCCC` [Example 1], in series [1] (high dose group, 150 μg LNP/pc), the Alanine aminotransferase came to 38.16 U/L, the “Alkaline phosphatase (ALP)” value turned out to be 112.7 U/L, the Aspartate aminotransferase was 125.26 U/L and the Creatinine is 12.4 µmol/L. Further, in series [1] (high dose group, 150 μg LNP/pc), the “Total bilirubin (TBIL)” value was determined as 1.56 and the “γ-Glutamyltransferase (GGT)” value was 0.12 (0.12) U/L. Moreover, in series [1] (low dose group, 50 μg/pc), the Alanine aminotransferase is 33.46 (3.54) U/L, the “Alkaline phosphatase (ALP)” value was 114.38 U/L, the Aspartate aminotransferase is recorded as 109.92 U/L and the Creatinine was determined as 13.8 µmol/L. For the same molecule, in series [1] (low dose group, 50 μg/pc), the “Total bilirubin (TBIL)” value is on record as 1.18 (0.13) and the “γ-Glutamyltransferase (GGT)” value is 0.22 (0.33) U/L. Besides, the “Exposure in tissues and organs, from high to low” value (from here on “Exposure in tissues and organs”) in series [2] was “injection site muscle, inguinal lymph nodes, whole blood, spleen, non-injection site muscle, bone marrow, heart, liver, mesenteric lymph nodes, kidney, small intestine and brain”. The molecule further had an Average fluorescence intensity in series [3] of 1.218E+06 P/s/cm^2/sr.
In series [3], `CCCCCCCCCCCOC(=O)CCCCCN(CCCCCCCO)CCCCCCCC(=O)OC(CCCCCCCC)CCCCCCCC` [Example 3] registered an Average fluorescence intensity of 8.55E+05 P/s/cm^2/sr.
Same read-out and setting: next, `CCCCCCCCCCCOC(=O)CCCCCN(CCCCCCCCO)CCCCCCCC(=O)OC(CCCCCCCC)CCCCCCCC` [Example 4]: 5.47E+05 P/s/cm^2/sr; `CCCCCCCCCCCOC(=O)CCCCCN(CCCCCCCCCO)CCCCCCCC(=O)OC(CCCCCCCC)CCCCCCCC` [Example 5]: 5.67E+05 P/s/cm^2/sr.
On the same count and under the same terms, next, `CCCCCCCCCCCOC(=O)CCCCCN(CCCCCCCCCCO)CCCCCCCC(=O)OC(CCCCCCCC)CCCCCCCC` [Example 6]: 5.08E+05 P/s/cm^2/sr.
In the case of `CCCCCCCCCCCOC(=O)CCCCCN(CCCCCCCCCCCCO)CCCCCCCC(=O)OC(CCCCCCCC)CCCCCCCC` [Example 7], in series [1] (high dose group, 150 μg LNP/pc), the Alanine aminotransferase came out at 39.92 U/L, the “Alkaline phosphatase (ALP)” value turned out to be 103.8 U/L, the Aspartate aminotransferase was 138.44 U/L and the Creatinine was 12.2 µmol/L. In series [1] (high dose group, 150 μg LNP/pc), the “Total bilirubin (TBIL)” value was 1.35 and the “γ-Glutamyltransferase (GGT)” value is 0.22 (0.04) U/L. For the same molecule, in series [1] (low dose group, 50 μg/pc), the Alanine aminotransferase was 33.56 (5.17) U/L, the “Alkaline phosphatase (ALP)” value was found to be 107.58 U/L, the Aspartate aminotransferase was determined as 109.54 U/L and the Creatinine is 13.6 µmol/L. Moreover, in series [1] (low dose group, 50 μg/pc), the “Total bilirubin (TBIL)” value is 1.18 (0.16) and the “γ-Glutamyltransferase (GGT)” value is on record as 0.06 (0.12) U/L. In series [2] (compared with SM-102), the “Level (distribution) of delivered mRNA in the stomach” value (“Level (distribution)” for short) is listed as “higher distribution”. In series [2] (compared with SM-102, listed as compound 7), the “Level (distribution)” value is recorded as “relatively higher level”. The “Exposure in tissues and organs” value in series [2] was “injection site muscle, inguinal lymph nodes, whole blood, spleen, non-injection site muscle, bone marrow, heart, liver, mesenteric lymph nodes, kidney, small intestine and brain”. The Average fluorescence intensity in series [3] worked out at 4.73E+05 P/s/cm^2/sr.
Regarding `CCCCCCCCCCCOC(=O)CCCCCN(CCCCCCCC(=O)OC(CCCCCCCC)CCCCCCCC)C(C)CCCO` (stereo not shown) [Example 8], the Average fluorescence intensity in series [3] turned out to be 1.17E+03 P/s/cm^2/sr.
As to `CCCCCCCCCCCOC(=O)CCCCCN(CCCCCCCC(=O)OC(CCCCCCCC)CCCCCCCC)C(C)CCO` (stereo not shown) [Example 9], in series [1] (high dose group, 150 μg LNP/pc), the Alanine aminotransferase was 37.25 U/L, the “Alkaline phosphatase (ALP)” value was found to be 116.9 U/L, the Aspartate aminotransferase is reported as 128.26 U/L and the Creatinine was determined as 12.1 µmol/L. In series [1] (high dose group, 150 μg LNP/pc), the “Total bilirubin (TBIL)” value is reported as 1.43 and the “γ-Glutamyltransferase (GGT)” value is 0.18 (0.15) U/L. Moreover, in series [1] (low dose group, 50 μg/pc), the Alanine aminotransferase is given as 35.44 (3.67) U/L, the “Alkaline phosphatase (ALP)” value came to 115.29 U/L, the Aspartate aminotransferase stood at 107.55 U/L and the Creatinine worked out at 14.2 µmol/L. Also, in series [1] (low dose group, 50 μg/pc), the “Total bilirubin (TBIL)” value is listed as 1.21 (0.19) and the “γ-Glutamyltransferase (GGT)” value is 0.24 (0.37) U/L. For the same molecule, in series [2] (compared with SM-102), the “Level of delivered mRNA in the small intestine” value is on record as “relatively higher level”. In addition, the “Exposure in tissues and organs” value in series [2] is “inguinal lymph nodes, injection site muscles, non-injection site muscles, whole blood, spleen, bone marrow, mesenteric lymph nodes, heart, liver, kidney, small intestine, stomach and brain”. This molecule also registered an Average fluorescence intensity in series [3] of 3.74E+05 P/s/cm^2/sr.
In the case of `CCCCCCCCCCCOC(=O)CCCCCN(CCCCCCCC(=O)OC(CCCCCCCC)CCCCCCCC)CC(C)(C)CO` [Example 10], the Average fluorescence intensity in series [3] worked out at 7.37E+03 P/s/cm^2/sr.
On the same count and under the same terms, next, `CCCCCCCCCCCOC(=O)CCCCCN(CCCCCCCC(=O)OC(CCCCCCCC)CCCCCCCC)CC(F)(F)CO` [Example 11]: 1.39E+03 P/s/cm^2/sr.
The same measure, in the same setting: the same measure for `CCCCCCCCCCCOC(=O)CCCCCN(CCCCCCCC(=O)OC(CCCCCCCC)CCCCCCCC)CC1(CO)CC1` [Example 12]: 3.62E+03 P/s/cm^2/sr.
`CCCCCCCCCCCOC(=O)CCCCCN(CCCCCCCC(=O)OC(CCCCCCCC)CCCCCCCC)CC1(O)CC1` [Example 13]: in series [1] (high dose group, 150 μg LNP/pc), the Alanine aminotransferase worked out at 39.99 U/L, the “Alkaline phosphatase (ALP)” value is reported as 109.84 U/L, the Aspartate aminotransferase is 126.77 U/L and the Creatinine is 12.4 µmol/L. Further, in series [1] (high dose group, 150 μg LNP/pc), the “Total bilirubin (TBIL)” value came out at 1.34 and the “γ-Glutamyltransferase (GGT)” value is on record as 0.18 (0.18) U/L. In addition, in series [1] (low dose group, 50 μg/pc), the Alanine aminotransferase was 36.19 (3.01) U/L, the “Alkaline phosphatase (ALP)” value is recorded as 111.74 U/L, the Aspartate aminotransferase turned out to be 110.27 U/L and the Creatinine is 13.5 µmol/L. In addition, in series [1] (low dose group, 50 μg/pc), the “Total bilirubin (TBIL)” value is listed as 1.18 (0.23) and the “γ-Glutamyltransferase (GGT)” value was 0.38 (0.41) U/L. The “Level (distribution)” value in series [2] (compared with SM-102) is listed as “relatively higher level”. For the same molecule, the “Exposure in tissues and organs” value in series [2] is “inguinal lymph nodes, injection site muscles, non-injection site muscles, whole blood, spleen, bone marrow, mesenteric lymph nodes, heart, liver, kidneys, stomach, small intestine and brain”. For the same molecule, the Average fluorescence intensity in series [3] is listed as 2.78E+05 P/s/cm^2/sr.
In series [3], `CCCCCCCCCCCOC(=O)CCCCCN(CCCCCCCC(=O)OC(CCCCCCCC)CCCCCCCC)C1(CO)CC1` [Example 14] displayed an Average fluorescence intensity of 1.91E+03 P/s/cm^2/sr.
For `CCCCCCCCCCCOC(=O)CCCCCN(CCCCCCCC(=O)OC(CCCCCCCC)CCCCCCCC)CC1(CO)CCC1` [Example 15], the Average fluorescence intensity in series [3] was 1.57E+03 P/s/cm^2/sr.
As to `CCCCCCCCCCCOC(=O)CCCCCN(CCO)CCCCCCCC(=O)OC(CCCCCCCC)CCCCCCCC` [SM102, reference compound], in series [1] (high dose group, 150 μg LNP/pc), the Alanine aminotransferase is 56.18 U/L, the “Alkaline phosphatase (ALP)” value was 116.88 U/L, the Aspartate aminotransferase came out at 145.96 U/L and the Creatinine is 12.6 µmol/L. Moreover, the “γ-Glutamyltransferase (GGT)” value in series [1] (high dose group, 150 μg LNP/pc) was 0.32 (0.22) U/L. Also, in series [1] (low dose group, 50 μg/pc), the Alanine aminotransferase was 36.04 (2.93) U/L, the “Alkaline phosphatase (ALP)” value is 131.7 U/L, the Aspartate aminotransferase is 121.4 U/L and the Creatinine is 14.6 µmol/L. Also, in series [1] (low dose group, 50 μg/pc), the “γ-Glutamyltransferase (GGT)” value is recorded as 0.41 (0.24) U/L. In addition, in series [2], the “Exposure in tissues and organs” value is “inguinal lymph nodes, injection site muscles, whole blood, non-injection site muscles, spleen, bone marrow, heart, mesenteric lymph nodes, liver, kidney, small intestine, and brain”. Besides, in series [4] (setting [5]), the PDI was 0.1296 and the “Particle size (nm)” value is listed as 92.16 nm. The same molecule registered an Encapsulation rate in series [4] (LNP-encapsulated mRNA, Ribogreen kit) of 95%. The Average fluorescence intensity in series [3] was 1.112E+06 P/s/cm^2/sr.
